Laboratory results reported in patent US20120270237A9, “METHODS FOR THE IDENTIFICATION OF KINASE INTERACTING MOLECULES AND FOR THE PURIFICATION OF KINASE PROTEINS” (Cellzone AG, priority 2009, published 2012).

How the values were obtained:
Experiment in all cases: Kinobeads competition binding, L-363 cell lysate
Design in all cases: endogenous in cells
Settings in all cases: 10 μM free compound, L-363 lysate
DNAPK = DNAPK (Homo sapiens, UniProt P78527)
Method in brief: (§1)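 Competition readout: iTRAQ 114/117 reporter-ion ratios from LC-MS/MS, compound-treated versus DMSO lysate. Free compound at 10 μM competed for kinase binding before addition of immobilized-compound beads. Source lysate came from L-363 cells exposed to 20 μM MG132 for three hours.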

QIK = QIK (Homo sapiens, UniProt Q9H0K1)
Method in brief: as §1

MAP3K5 = biological target: T1, MAP3K5 (Homo sapiens, UniProt Q99683)
T1 sequence (Q99683 1-1374): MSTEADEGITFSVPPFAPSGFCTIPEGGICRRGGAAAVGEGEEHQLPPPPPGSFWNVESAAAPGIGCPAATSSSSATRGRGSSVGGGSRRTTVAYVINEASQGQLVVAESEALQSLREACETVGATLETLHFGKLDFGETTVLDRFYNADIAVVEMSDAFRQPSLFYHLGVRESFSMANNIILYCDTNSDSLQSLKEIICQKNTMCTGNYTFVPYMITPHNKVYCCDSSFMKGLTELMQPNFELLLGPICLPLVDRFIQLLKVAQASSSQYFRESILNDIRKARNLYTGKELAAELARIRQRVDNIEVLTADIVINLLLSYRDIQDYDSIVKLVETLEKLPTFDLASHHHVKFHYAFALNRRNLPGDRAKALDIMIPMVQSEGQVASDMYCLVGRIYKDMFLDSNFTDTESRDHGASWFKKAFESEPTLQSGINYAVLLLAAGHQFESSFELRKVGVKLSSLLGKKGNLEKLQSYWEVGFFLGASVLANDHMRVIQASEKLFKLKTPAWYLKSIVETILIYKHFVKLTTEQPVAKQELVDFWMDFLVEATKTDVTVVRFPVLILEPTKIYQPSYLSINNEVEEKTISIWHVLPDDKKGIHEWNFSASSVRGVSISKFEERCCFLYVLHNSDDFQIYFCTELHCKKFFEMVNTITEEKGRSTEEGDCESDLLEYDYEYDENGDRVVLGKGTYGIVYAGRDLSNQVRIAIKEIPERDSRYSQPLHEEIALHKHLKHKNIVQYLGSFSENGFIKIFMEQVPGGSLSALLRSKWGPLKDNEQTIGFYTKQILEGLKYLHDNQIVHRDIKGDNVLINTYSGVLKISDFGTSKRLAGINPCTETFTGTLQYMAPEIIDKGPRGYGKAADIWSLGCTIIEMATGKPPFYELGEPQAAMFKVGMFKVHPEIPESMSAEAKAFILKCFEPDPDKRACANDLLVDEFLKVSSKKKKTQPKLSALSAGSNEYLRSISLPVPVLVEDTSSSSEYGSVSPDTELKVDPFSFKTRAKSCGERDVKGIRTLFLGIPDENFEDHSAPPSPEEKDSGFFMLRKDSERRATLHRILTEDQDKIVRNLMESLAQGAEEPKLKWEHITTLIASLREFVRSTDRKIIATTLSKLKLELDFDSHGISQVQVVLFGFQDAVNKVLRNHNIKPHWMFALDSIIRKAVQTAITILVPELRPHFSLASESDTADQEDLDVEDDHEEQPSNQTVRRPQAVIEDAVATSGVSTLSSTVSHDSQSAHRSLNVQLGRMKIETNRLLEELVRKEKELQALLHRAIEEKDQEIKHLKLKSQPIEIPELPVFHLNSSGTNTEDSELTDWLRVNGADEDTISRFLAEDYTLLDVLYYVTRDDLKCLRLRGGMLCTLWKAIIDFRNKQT
Method in brief: as §1

MARK3 = MARK3 (Homo sapiens, UniProt P27448)
Method in brief: as §1

MST2 = MST2 (Homo sapiens, UniProt Q13188)
Method in brief: as §1

CDK2 = CDK2 (Homo sapiens, UniProt P24941)
Method in brief: as §1

MAP3K2 = biological target: T2, MAP3K2 (Homo sapiens, UniProt Q9Y2U5)
T2 sequence (Q9Y2U5 1-619): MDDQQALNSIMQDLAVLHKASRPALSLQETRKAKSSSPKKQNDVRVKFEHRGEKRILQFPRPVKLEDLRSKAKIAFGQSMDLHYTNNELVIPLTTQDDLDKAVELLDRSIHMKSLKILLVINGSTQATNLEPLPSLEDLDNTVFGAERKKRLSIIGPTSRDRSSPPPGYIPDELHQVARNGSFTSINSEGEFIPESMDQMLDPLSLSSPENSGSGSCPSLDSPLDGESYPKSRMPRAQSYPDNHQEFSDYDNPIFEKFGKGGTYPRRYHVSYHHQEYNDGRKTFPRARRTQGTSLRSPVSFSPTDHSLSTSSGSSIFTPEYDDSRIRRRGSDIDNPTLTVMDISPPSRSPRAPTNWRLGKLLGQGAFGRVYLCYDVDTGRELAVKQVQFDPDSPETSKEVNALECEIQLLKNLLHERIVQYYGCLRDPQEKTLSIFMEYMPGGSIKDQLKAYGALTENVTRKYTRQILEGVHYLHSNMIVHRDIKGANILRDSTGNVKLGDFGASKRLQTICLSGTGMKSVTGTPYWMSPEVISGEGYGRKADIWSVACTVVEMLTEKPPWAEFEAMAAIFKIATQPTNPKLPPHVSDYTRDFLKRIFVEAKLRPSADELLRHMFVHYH
Method in brief: as §1

HPK1 = HPK1 (Homo sapiens, UniProt Q92918)
Sequence of HPK1 (Q92918 whole entry): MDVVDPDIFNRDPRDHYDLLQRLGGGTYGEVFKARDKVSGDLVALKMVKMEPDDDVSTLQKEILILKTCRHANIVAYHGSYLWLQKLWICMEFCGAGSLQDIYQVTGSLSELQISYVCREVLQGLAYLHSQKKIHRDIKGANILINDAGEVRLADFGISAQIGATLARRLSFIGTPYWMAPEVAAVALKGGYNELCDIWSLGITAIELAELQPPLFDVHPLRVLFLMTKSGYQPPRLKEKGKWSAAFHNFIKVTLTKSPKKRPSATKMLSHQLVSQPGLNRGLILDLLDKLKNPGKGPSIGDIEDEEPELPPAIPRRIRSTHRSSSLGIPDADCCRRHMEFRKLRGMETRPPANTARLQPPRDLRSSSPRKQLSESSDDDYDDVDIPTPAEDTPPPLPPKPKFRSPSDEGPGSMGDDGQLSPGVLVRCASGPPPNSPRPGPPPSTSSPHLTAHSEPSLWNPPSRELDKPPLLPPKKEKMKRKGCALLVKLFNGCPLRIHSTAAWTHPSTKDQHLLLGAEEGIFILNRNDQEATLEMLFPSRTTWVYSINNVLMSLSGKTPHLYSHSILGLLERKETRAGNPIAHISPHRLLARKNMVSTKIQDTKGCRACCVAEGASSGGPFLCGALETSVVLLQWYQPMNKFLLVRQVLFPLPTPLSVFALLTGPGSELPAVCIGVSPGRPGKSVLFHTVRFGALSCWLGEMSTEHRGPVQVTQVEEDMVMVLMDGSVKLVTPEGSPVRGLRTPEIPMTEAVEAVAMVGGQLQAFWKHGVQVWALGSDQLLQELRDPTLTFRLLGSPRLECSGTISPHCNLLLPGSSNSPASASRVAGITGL
Method in brief: as §1

Sequence of DNAPK (P78527 whole entry): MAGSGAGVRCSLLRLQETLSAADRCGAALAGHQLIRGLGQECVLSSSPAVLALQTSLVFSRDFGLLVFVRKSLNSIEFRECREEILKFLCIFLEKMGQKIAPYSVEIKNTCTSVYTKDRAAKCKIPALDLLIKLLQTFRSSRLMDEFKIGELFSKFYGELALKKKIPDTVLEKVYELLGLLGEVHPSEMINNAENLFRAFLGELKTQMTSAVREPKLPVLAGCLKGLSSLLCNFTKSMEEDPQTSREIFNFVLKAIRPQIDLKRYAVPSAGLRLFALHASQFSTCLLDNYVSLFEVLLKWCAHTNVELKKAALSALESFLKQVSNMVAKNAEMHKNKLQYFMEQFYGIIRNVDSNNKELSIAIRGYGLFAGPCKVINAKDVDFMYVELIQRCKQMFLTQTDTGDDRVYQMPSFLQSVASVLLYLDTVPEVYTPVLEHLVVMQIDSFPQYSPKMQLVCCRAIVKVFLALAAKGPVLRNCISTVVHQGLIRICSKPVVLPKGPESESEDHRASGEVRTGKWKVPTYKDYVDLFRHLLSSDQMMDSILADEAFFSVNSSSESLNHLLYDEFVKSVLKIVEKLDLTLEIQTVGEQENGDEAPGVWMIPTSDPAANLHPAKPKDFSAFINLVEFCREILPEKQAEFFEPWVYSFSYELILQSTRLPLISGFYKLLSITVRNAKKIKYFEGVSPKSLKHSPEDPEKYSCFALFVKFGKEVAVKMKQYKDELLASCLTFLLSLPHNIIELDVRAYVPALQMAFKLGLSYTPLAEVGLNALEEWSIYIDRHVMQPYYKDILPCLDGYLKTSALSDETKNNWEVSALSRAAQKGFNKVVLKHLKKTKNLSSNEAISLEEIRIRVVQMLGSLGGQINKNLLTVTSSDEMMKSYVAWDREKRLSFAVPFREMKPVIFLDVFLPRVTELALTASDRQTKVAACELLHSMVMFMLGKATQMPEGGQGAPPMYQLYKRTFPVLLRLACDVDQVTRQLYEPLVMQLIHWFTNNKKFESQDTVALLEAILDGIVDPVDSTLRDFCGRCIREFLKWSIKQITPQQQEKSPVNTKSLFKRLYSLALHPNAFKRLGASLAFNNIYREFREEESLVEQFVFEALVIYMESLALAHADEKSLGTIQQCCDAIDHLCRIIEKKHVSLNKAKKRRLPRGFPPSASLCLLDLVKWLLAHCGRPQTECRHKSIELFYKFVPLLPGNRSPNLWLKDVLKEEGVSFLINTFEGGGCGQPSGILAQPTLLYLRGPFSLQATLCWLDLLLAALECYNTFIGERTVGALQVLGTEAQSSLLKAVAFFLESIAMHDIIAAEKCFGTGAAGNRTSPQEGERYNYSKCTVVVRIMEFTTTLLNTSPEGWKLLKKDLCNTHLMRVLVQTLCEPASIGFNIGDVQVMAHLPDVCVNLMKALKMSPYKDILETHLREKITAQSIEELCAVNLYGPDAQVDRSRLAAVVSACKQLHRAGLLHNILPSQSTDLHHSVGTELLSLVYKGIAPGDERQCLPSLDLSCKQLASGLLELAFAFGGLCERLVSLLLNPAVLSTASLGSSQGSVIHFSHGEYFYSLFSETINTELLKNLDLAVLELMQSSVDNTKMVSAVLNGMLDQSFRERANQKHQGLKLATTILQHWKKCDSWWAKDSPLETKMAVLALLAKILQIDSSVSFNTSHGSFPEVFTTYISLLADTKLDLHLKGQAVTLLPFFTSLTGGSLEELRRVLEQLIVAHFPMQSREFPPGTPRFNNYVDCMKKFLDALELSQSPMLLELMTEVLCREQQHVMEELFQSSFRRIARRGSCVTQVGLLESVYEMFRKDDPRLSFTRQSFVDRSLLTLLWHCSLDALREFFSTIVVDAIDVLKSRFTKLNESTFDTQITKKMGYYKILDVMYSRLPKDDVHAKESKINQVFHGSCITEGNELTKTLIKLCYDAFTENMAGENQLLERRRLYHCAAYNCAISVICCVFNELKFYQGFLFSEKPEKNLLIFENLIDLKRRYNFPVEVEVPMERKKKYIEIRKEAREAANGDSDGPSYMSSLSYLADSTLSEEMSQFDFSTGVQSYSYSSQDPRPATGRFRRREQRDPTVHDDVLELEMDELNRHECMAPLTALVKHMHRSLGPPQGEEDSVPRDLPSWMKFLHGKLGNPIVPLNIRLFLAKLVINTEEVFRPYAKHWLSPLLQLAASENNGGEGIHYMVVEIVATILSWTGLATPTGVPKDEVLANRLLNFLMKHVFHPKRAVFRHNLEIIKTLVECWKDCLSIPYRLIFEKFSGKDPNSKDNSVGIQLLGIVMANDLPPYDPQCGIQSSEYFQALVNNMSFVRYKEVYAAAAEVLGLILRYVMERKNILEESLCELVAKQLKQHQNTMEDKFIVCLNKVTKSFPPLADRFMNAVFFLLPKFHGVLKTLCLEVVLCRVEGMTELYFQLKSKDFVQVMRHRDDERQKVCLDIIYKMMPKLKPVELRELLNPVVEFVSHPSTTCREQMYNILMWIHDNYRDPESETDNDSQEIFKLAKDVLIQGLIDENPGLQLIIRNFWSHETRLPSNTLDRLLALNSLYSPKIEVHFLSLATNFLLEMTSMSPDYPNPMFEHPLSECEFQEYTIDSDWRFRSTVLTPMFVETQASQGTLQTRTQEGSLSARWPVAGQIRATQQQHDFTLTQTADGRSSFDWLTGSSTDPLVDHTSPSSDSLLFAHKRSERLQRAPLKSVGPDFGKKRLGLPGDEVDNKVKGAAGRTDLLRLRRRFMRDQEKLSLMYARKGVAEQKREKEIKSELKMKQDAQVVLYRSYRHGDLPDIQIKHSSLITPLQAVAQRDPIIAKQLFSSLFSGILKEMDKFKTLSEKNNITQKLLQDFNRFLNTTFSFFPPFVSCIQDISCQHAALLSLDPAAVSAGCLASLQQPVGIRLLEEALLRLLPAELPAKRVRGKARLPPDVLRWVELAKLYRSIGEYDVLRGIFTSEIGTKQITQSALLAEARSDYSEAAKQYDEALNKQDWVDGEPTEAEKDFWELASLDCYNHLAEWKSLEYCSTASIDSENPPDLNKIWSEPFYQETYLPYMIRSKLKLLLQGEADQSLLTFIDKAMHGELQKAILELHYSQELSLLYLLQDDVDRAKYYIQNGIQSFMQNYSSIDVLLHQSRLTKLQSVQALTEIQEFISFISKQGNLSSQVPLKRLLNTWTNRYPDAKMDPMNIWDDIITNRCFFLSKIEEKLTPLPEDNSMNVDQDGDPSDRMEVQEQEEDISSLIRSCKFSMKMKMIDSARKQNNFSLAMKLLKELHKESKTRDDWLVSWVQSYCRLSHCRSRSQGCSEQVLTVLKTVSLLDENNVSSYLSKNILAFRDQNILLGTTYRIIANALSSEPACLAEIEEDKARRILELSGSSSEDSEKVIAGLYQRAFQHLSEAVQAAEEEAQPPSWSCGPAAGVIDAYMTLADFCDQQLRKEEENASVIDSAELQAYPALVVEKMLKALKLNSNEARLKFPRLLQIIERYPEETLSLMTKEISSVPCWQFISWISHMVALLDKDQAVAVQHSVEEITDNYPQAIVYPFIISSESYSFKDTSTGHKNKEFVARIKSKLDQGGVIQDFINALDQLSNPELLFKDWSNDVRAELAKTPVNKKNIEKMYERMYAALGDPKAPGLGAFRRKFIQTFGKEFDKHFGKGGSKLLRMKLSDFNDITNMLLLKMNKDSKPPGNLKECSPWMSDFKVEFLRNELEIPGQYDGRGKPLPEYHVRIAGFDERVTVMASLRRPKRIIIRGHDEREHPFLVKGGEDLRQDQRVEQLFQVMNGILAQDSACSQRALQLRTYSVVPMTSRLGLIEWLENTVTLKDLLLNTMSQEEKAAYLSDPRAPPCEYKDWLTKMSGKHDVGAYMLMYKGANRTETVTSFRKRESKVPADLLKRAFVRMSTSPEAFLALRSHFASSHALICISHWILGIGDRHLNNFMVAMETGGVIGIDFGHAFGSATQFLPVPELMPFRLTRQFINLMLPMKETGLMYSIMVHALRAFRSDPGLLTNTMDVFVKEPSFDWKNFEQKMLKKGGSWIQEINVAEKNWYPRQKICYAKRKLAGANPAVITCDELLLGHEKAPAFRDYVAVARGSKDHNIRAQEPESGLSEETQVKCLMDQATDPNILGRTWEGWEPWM

CS(=O)(=O)Nc1ccccc1Nc1nc(Nc2cccc(OCCN)c2)ncc1Cl [CZC31326, N-(2-(2-(3-(2-aminoethoxy)phenylamino)-5-chloropyrimidin-4-ylamino)phenyl)methanesulfonamide]
inhibition at 10 µM (DNAPK): 84% | inhibition at 10 µM (QIK): 96.5% | inhibition at 10 µM (MAP3K5): 91.3% | inhibition at 10 µM (MARK3): 97% | inhibition at 10 µM (MST2): 98.2% | Competition % (CDK2): 95.2% | inhibition at 10 µM (MAP3K2): 96% | inhibition at 10 µM (HPK1): 98%
